Assay results as given in patent US6495524B1, “Benzo[b]pyran derivatives useful as external agents for the skin” (Pola Chemical Industries Inc., priority 1998, dated 2002).

Legend:
[1] = system: mouse melanoma-derived cells B-16; test: Inhibitory activity against melanine synthesis; assay type: cell-based; details: for Inhibition Ratio (melanine synthesis) / Amount of Melanine: 4 days; for Amount of Melanine: mean ± SD of five flasks; for inhibitory activity against the melanine synthesis by melanocytes (in words): remarkable in concentrations of 0.0005 w/v% or more
Protocol: 3×10^4 cells of mouse melanoma-derived cells B-16 were inoculated in a plastic incubation flask (75 cm^3) and incubated in Eagle MEM medium containing 10% fetal bovine serum under the conditions of 5% CO2 and 37° C. Two days after the start of the incubation, the inulavosin obtained in Production Example 1 above, the acetylinulavosin obtained in Example 1, or the glucosylinulavosin obtained in Example 2 was added to the incubation flask so that its concentration in the medium became 5×10^−5 to 1×10^−3 (W/V%) as shown in Tables 1 to 3 below, and the incubation was continued for additional 4 days. After completion of the incubation, the medium was removed from the incubation flask and the flask was washed with equilibrium phosphate buffer solution (hereinafter referred as “PBS”). Thereafter, the cells adhered on the incubation flask were stripped off with a solution containing trypsin and EDTA and then the obtained mixture was centrifuged to collect the cells.
After washing the collected cells with PBS, 1N sodium hydroxide was added to the precipitate, and the mixture was heat-dissolved. After cooling, chloroform was added thereto and the mixture was stirred and centrifuged again. The resultant supernatant was measured for absorbance at 400 nm and the amount of melanine was obtained by a calibration curve prepared in advance using synthetic melanine. The amount of melanine was obtained as weight (μg) per 10^6 cells. In the experiments, five flasks were used for each concentration of the test samples.
Tables 1 to 3 show the results obtained as average values of five flasks together with standard deviations. Tables 1 to 3 show the results for inulavosin, acetylinulavosin, and glucosylinulavosin, respectively.
In addition, as a control, the amount of melanine was determined by conducting the same experiments as described above except that the compound represented by formula (I) was not added. From the amount of melanine in the absence of samples and the amount of melanine in the presence of a sample, there was obtained melanine synthesis inhibition ratio (R(%)) by the following equation. The amount of melanine in the equation was an average value obtained from five flasks.
R: Melanine synthesis inhibition ratio
A: Amount of melanine in the absence of samples
B: Amount of melanine in the presence of a sample

[2] = system: Staphylococcus aureus; details: Heterocycles, Vol. 41, No. 9, 1923-1926 (1995); cited from earlier work
[3] = system: Pseudomonas aeruginosa; details: Heterocycles, Vol. 41, No. 9, 1923-1926 (1995); cited from earlier work
[4] = system: fish; details: Heterocycles, Vol. 41, No. 9, 1923-1926 (1995); cited from earlier work

| Structure (SMILES) | Inhibition Ratio (melanine synthesis) ([1]; 1 × 10^−3 W/V % in medium) [%] | Amount of Melanine ([1]; 1 × 10^−3 W/V % in medium) [μg/10^6 cells] | Inhibition Ratio (melanine synthesis) ([1]; 1 × 10^−4 W/V % in medium) [%] | Amount of Melanine ([1]; 1 × 10^−4 W/V % in medium) [μg/10^6 cells] | Inhibition Ratio (melanine synthesis) ([1]; 5 × 10^−4 W/V % in medium) [%] | Amount of Melanine ([1]; 5 × 10^−4 W/V % in medium) [μg/10^6 cells] | Inhibition Ratio (melanine synthesis) ([1]; 5 × 10^−5 W/V % in medium) [%] | Amount of Melanine ([1]; 5 × 10^−5 W/V % in medium) [μg/10^6 cells] | inhibitory activity against the melanine synthesis by melanocytes (in words) [1] | antibacterial activity [2] | antibacterial activity [3] | fish toxin activity [4] |
| --- | --- | --- | --- | --- | --- | --- | --- | --- | --- | --- | --- | --- |
| CC(=O)Oc1cc(C)ccc1C1(C)CC(C)(C)c2ccc(C)cc2O1 (stereo not drawn) [Acetylinulavosin, 2′-acetoxy-2,4,4,7,4′-pentamethylflavan] | 87.9 | 0.39 ± 0.18 | 25.1 | 2.42 ± 0.26 | 62.2 | 1.22 ± 0.17 | 9.3 | 2.93 ± 0.35 | have inhibitory activity against the melanine synthesis by melanocytes |  |  |  |
| Cc1ccc2c(c1)OC(C)(c1ccc(C)cc1OC1O[C@H](CO)[C@@H](O)[C@H](O)[C@H]1O)CC2(C)C (stereo partly drawn) [Glucosylinulavosin, 2′-O-glucosyl-2,4,4,7,4′-pentamethylflavan] | 80.8 | 0.62 ± 0.15 | 22.0 | 2.52 ± 0.23 | 58.2 | 1.35 ± 0.17 | 6.5 | 3.02 ± 0.33 | have inhibitory activity against the melanine synthesis by melanocytes |  |  |  |
| Cc1ccc(C2(C)CC(C)(C)c3ccc(C)cc3O2)c(O)c1 (stereo not drawn) [Inulavosin, 2′-hydroxy-2,4,4,7,4′-pentamethylflavan] | 91.3 | 0.28 ± 0.17 | 31.0 | 2.23 ± 0.24 | 73.1 | 0.87 ± 0.21 | 15.2 | 2.74 ± 0.32 | have inhibitory activity against the melanine synthesis by melanocytes | antibacterial activity | antibacterial activity | fish toxin activity |
